In patent publication US20150216870A1, “Combination of PI3K Inhibitor and C-Met Inhibitor” (Novartis AG, priority 2012, published 2015):

Legend:
U-87 MG = experiment: CellTiter-Glo cell viability dose matrix in U-87 MG glioblastoma cells; format: cell-based, human; settings: U87 MG (PTEN mutant, HGF expressing)
Method: (§1) The PI3K inhibitor COMPOUND C and the c-MET receptor tyrosine kinase inhibitor 2-fluoro-N-methyl-4-[7-quinolin-6-yl-methyl)-imidazo[1,2-b][1,2,4]triazin-2yl]benzamide are evaluated in combination in glioblastoma tumor models. COMPOUND C (10 mM) and 2-fluoro-N-methyl-4-[7-quinolin-6-yl-methyl)-imidazo[1,2-b][1,2,4]triazin-2yl]benzamide (10 mM) are dissolved in DMSO, and are stored in aliquots at −20° C.
(§2) Human Glioblastoma cell lines, U-87 MG (PTEN mutant and HGF expressing line), H4 (PTEN mutant and HGF expressing line), A172 (PTEN mutant line with low HGF expression level) and LN-229 (PTEN wildtype and HGF low) are purchased from American Type Cell Collection and are maintained in a humidified incubator at 37° C. in 5% CO2 in recommended media. All four cell lines express detected MET at the mRNA level.
(§3) The cells are passaged twice a week and the medium is changed every 2 to 3 days. […]
(§4) Cell viability is determined by measuring cellular ATP content using the CellTiter-Glo® (CTG) luminescent cell viability assay (Promega). […] An equal volume of the CTG reagents is added to each well at the end of the compound treatment and luminescence is recorded on an Envision plate reader (Perkin Elmer). Reduced and enhanced luminescent signal values (responses) are calculated relative to untreated (control) cells. […]

H4 = experiment: CellTiter-Glo cell viability dose matrix in H4 glioblastoma cells; format: cell-based, human; settings: H4 (PTEN mutant, HGF expressing)
Method: as §1, §2, §3, §4

A172 = experiment: CellTiter-Glo cell viability dose matrix in A172 glioblastoma cells; format: cell-based, human; settings: A172 (PTEN mutant, low HGF)
Method: as §1, §2, §3, §4

LN-229 = experiment: CellTiter-Glo cell viability dose matrix in LN-229 glioblastoma cells; format: cell-based, human; settings: LN229 (PTEN wildtype, HGF low)
Method: as §1, §2, §3, §4

[1] = tested on: U-87 MG human glioblastoma xenograft; experiment: U-87 MG xenograft tumor growth inhibition and tumor growth delay; format: in vivo, nude mice; settings: for T/C or T/T0: D13; for Median TTE: endpoint 2000 mm3; for Regress.: PR: number of animals
Method: In this experiment, the U-87 MG human glioblastoma xenograft model is used to assess the anti-tumor efficacy of the PI3K inhibitor COMPOUND C and c-Met inhibitor 2-fluoro-N-methyl-4-[7-quinolin-6-yl-methyl)-imidazo[1,2-b][1,2,4]triazin-2yl]benzamide as single agents or in combination. U-87 MG tumor cells obtained from the National Cancer Institute are reported to be homozygous for likely oncogenic variants of CDKN2A, CDKN2C, CDKN2a, and PTEN; no mutations are detected in MET, PIK3CA, or 58 other genes that are frequently altered in neoplastic cells; and HGF expressing.
Mice are treated daily for 21 days with 17.7 and 35.3 mg/kg of the c-Met inhibitor and 32.7 mg/kg COMPOUND C monotherapies, and with the c-Met inhibitor/COMPOUND C dual therapy at 17.7:32.7. An c-Met inhibitor/COMPOUND C combination at the 58.8:5.4 mg/kg dose ratio was included in the study. The control mice received both vehicles, and a standard preclinical temozolomide regimen monitored tumor model performance. The oral treatments began on Day 1 (D1) in nude mice with established subcutaneous tumors. Each animal was euthanized when its tumor reached the predetermined 2000 mm3 endpoint volume, or on D60, whichever came first. The study was terminated on D51. […] Overall efficacy was determined from the times required for tumors to progress to the volume endpoint, and from D51 survival and regression rates. This report describes the methods and results of the U87MG-e326 tumor growth delay experiment.
The animals are fed ad libitum water (reverse osmosis, 1 ppm CI) and NIH 31 Modified and Irradiated Lab Diet® consisting of 18.0% crude protein, 5.0% crude fat, and 5.0% crude fiber. The mice are housed on irradiated Enrich-O'cobs™ Laboratory Animal Bedding in static microisolators on a 12-hour light cycle at 20-22° C. (68-72° F.) and 40-60% humidity.
The U-87 MG tumor line is obtained from the American Type Culture Collection and maintained by serial engraftment in nude mice. A tumor fragment (1 mm^3) is implanted subcutaneously into the right flank of each test mouse. Tumors are calipered in two dimensions to monitor growth as their mean volume approached the desired 100-150 mm^3 range. Tumor size, in mm^3, was calculated from: Tumor Volume=(width^2×length)/2, where width and length (in mm) are measurements of the tumor. Tumor weight can be estimated with the assumption that 1 mg is equivalent to 1 mm^3 of tumor volume. Fourteen days after tumor cell implantation, on D1 of the study, mice with individual tumor volumes of 63-196 mm^3 are sorted into seven groups, with group mean tumor volumes of 122-127 mm^3.
The c-Met inhibitor 2-fluoro-N-methyl-4-[7-quinolin-6-yl-methyl)-imidazo[1,2-b][1,2,4]triazin-2yl]benzamide (di-HCl salt, 84.98% free base) is stored at 4° C. and is added to deionized water at 2× the final concentration and sonicated until dissolved. An equal volume of 0.5% methylcellulose and 0.1% Tween® 80 in deionized water is added to provide a 5.884 mg/mL dosing solution in 0.25% methylcellulose and 0.05% Tween® 80 in deionized water (Vehicle 1). Portions of this solution are diluted with Vehicle 1 to provide 3.53 and 1.765 mg/mL dosing solutions.
COMPOUND C (HCl salt, 91.85% free base) is stored at −20° C. and is added to 1% Tween® 80 in deionized water and sonicated to obtain a uniform suspension at 2× the final concentration. […] The 0.544 mg/mL dosing suspension is obtained by diluting a portion of the first suspension with Vehicle 2.

[2] = Toxicity (body weight, deaths) in NCI-H1993 xenograft study; format: in vivo; settings: c-Met inhibitor 17.7 mg/kg p.o. b.i.d. to end
Method: Animals are weighed on Days 1-5, on each treatment day (except weekends), and twice weekly thereafter, until the end of the study. The maximum group mean body weight (BW) loss is determined for the interval between D1 and D20 as well as for the entire study. Group mean BW nadir determinations exclude measurements taken after more than 50% of the assessable mice in the group have exited the study, and also exclude any animal that was classified as a non-treatment related (NTR) death during the study. Acceptable toxicity for the maximum tolerated dose (MTD) is defined as a group mean BW loss of less than 15% during the test, and not more than one TR death among ten animals. Any animal with BW losses exceeding 15% for three consecutive measurements, or with a BW loss exceeding 20% for one measurement, are euthanized, and classified as a TR death unless it was the first death in the group. A death is classified as NTR if there was no evidence that the death is related to treatment side effects and the death occurs more than 14 days after dosing ended. NTR deaths are categorized as NTRa (due to accident or error), NTRu (due to unknown causes), or NTRm (necropsy-confirmed tumor dissemination by invasion and/or metastasis). To conserve animals while providing maximum information, the first death in a group was classified as NTRu; such an NTR death was to be reclassified as TR if two subsequent TR deaths are recorded in the same group.

[3] = c-Met inhibitor 17.7 mg/kg (15 mg/kg free base) p.o. qd x21
[4] = c-Met inhibitor 35.3 mg/kg (30 mg/kg free base) p.o. qd x21

CNC(=O)c1ccc(-c2cnc3ncc(Cc4ccc5ncccc5c4)n3n2)cc1F [c-Met inhibitor]
anti-proliferative activity (single agent) (U-87 MG): only moderate activities
anti-proliferative activity (single agent) (H4): only moderate activities
anti-proliferative activity (single agent) (A172): completely inactive
anti-proliferative activity (single agent) (LN-229): completely inactive
increase of median TTE ([1]; c-Met inhibitor 15 mg/kg free base p.o. qd x21): 21.4 days
% TGD [1, 3]: 183%
T/C or T/T0 [1, 3]: 5%
T/C or T/T0 ([1]; c-Met inhibitor 17.7 mg/kg (15 mg/kg free base) p.o. qd x21, listed as c-Met inh.): 5%
Median TTE [1, 3]: 33.1 days
Regress.: PR ([1]; c-Met inhibitor 17.7 mg/kg p.o. qd x21): 4 PR
increase of median TTE ([1]; c-Met inhibitor 30 mg/kg free base p.o. qd x21): 23.4 days
% TGD [1, 4]: 200%
T/C or T/T0 [1, 4]: 1%
T/C or T/T0 ([1]; c-Met inhibitor 35.3 mg/kg (30 mg/kg free base) p.o. qd x21, listed as c-Met inh.): 1%
Median TTE [1, 4]: 35.1 days
Regress.: PR ([1]; c-Met inhibitor 35.3 mg/kg p.o. qd x21): 4 PR
Deaths: NTR [2]: (1 NTR)
deaths due to individual body weight losses [2]: One
